Legend:
[1] = Case: mental illness treated with mifepristone therapy followed by bilateral ECT; assay type: in vivo; conditions: one patient
Description: The patient subsequently underwent four treatments of bilateral ECT while continuing mifepristone therapy. […] During each treatment session, the patient received between 60 and 100 mg of methohexital and between 60 and 80 mg of succinylcholine.
For the first ECT treatment, the patient was delivered a stimulus using the Thymatron ECT device at 35% with […] eeg seizure duration and 115 second motor duration. After the first treatment, the patient was better able to organize their thoughts and was able to engage in more appropriate conversations. The second treatment was also at 35%, but the eeg duration decreased to 61 seconds and no motor seizure was detected. Consequently on the third treatment, the energy setting was increased to 40% with 115 second eeg duration and 91 second motor duration. After the third treatment, the patient had fewer somatic delusions, was able to comprehend written text and was easier to engage in conversation.

[2] = in one study; cited from earlier work

CC#C[C@]1(O)CC[C@H]2[C@@H]3CCC4=CC(=O)CCC4=C3[C@@H](c3ccc(N(C)C)cc3)C[C@@]21C [mifepristone, (11β, 17β)-11-[4-(dimethylamino)phenyl]-17-hydroxy-17-(1-propynyl)estra-4,9-dien-3-one]
clinical response to ECT while continuing mifepristone therapy ([1]; after four treatments of bilateral ECT, before the fifth): dramatically improved
clinical response to mifepristone therapy alone ([1]; before ECT): not significantly improving
side-effects of ECT with continued mifepristone therapy ([1]; four treatments of bilateral ECT): some impairment in short term memory but otherwise had no side-effects
fraction of the daily dose excreted in the urine [2]: less than 0.5%

Reference: US7326697B2, “Methods for increasing the therapeutic response to electroconvulsive therapy” (Corcept Therapeutics, Inc., priority 2002, dated 2008)
